The values that follow come from US9809602B2, “Compounds for treating viral infections” (INSTITUT PASTEUR KOREA, priority 2014, dated 2017).

The first experiment relates to genotype 1/2 chimeric cell culture derived HCV (HCVcc). The experiment can be described thus: Genotype 1/2 chimeric HCVcc assay (nano-luciferase, HCV replication). The format is cell-based. Particulars: Anti-HCVcc genotype 1/2 activity; Huh-7.5 cells, 72 h post infection, nano-luciferase. As to the method:
Naïve Huh-7.5 target cells were plated at 2400 cells/well in 25 μL of culture media in 384-well plates (Greiner bio-one, μ clear black). After overnight incubation, compounds serially diluted in 10 μL of cell culture media were added. After 2 h compound treatment, cells were inoculated with 40 μL of genotype 1/2 chimeric cell culture derived HCV (HCVcc) which express structural proteins of an HCV genotype 1a isolate (TN accession number EF621489) and non-structural proteins of HCV genotype 2a (JFH-1) with nano-luciferase reporter. At 72 h post infection, nano-luciferase activity (Nano-Glo™, Promega) and cellular ATP (Cell titer-Glo™, Promega) were measured as a marker for HCV replication and cytotoxicity, respectively. EC50 and CC50 were calculated by non-linear regression analyzing using GraphPad Prism (GraphPad Software).
In the case of `CCOC(=O)c1c(NC(=O)NCc2c(C(F)(F)F)sc3c2CCN(C(=O)[C@H](C)N)C3)sc2c1CCCC2` [Compound 328], the EC50 is below 100 nM.

The same experiment, now with this note: Hepatitis C virus.
`O=C(NCCCN1CCC(N2CCCCC2)C1)c1ccc(Oc2ccccc2)cc1` (centres unmarked) [Compound 1084] yielded an EC50 above 10000 nM. Consider `O=C(NCCN1CCC(N2CCCCC2)CC1)c1ccc(Oc2ccccc2)cc1` [Compound 1044], for which the EC50 was in the range of 1000 to 10000 nM.

As to `O=C(NCCCN1CCC(N2CCCCC2)CC1)c1cccc(Oc2cccc(C(F)(F)F)c2)c1` [Compound 1107], the EC50 lay within 100 to 1000 nM. The same measure, in the same setting: the figure for `O=C(NCCCN1CCC(NC2CCCCC2)CC1)c1ccc(Oc2ccccc2)cc1` [Compound 1079] is 100 to 1000 nM. Compound `O=C(NCCCN1CCN(Cc2ccccc2)CC1)c1ccc(Oc2ccccc2)cc1` [Compound 1036] displayed a half-maximal effective concentration (EC50) of 1000 to 10000 nM. On the same count and under the same terms, under `O=C(NCCCN1CCC(N2CCCCC2)CC1)c1ccc(Cc2ccccc2)cc1` [Compound 1012] stands 100 to 1000 nM. Same read-out and setting: the figure for `O=C(CCCN1CCC(N2CCCCC2)CC1)Nc1ccc(-c2ccc(C(F)(F)F)cc2)cc1` [Compound 1086] is 100 to 1000 nM. `O=C(CCCN1CCC(N2CCCCC2)CC1)Nc1ccc(-c2ccc(C(F)(F)F)cc2)c(F)c1` [Compound 1113]: the EC50 was 100 to 1000 nM. Still for that read-out and setting: the figure for `O=S(=O)(NCCCCN1CCC(N2CCCCC2)CC1)c1ccc(-c2ccccc2)cc1` [Compound 1091] is 100 to 1000 nM.

For `Cc1cc(NC(=O)CCCN2CCC(N3CCCCC3)CC2)ccc1-c1ccc(C(F)(F)F)cc1` [Compound 1152], the EC50 is below 100 nM.

For the compound `O=C(NCCCN1CCC(Nc2ccccc2)CC1)c1ccc(Oc2ccccc2)cc1` [Compound 1058], the EC50 is 1000 to 10000 nM. `O=C(NCCCN1CCN(C(=O)c2ccccc2)CC1)c1ccc(Oc2ccccc2)cc1` [Compound 1039]: the EC50 is above 10000 nM.

In turn, `O=C(NCCCN1CCC(N2CCCCC2)CC1)c1ccc(-c2ccc(C(F)(F)F)cc2)nc1` [Compound 1080] registered an EC50 of 100 to 1000 nM. With `O=C(Nc1ccc(N2CCC(N3CCCCC3)CC2)cc1)c1ccc(Oc2ccccc2)cc1` [Compound 1048], the EC50 lay in the range of 1000 to 10000 nM. In turn, `O=C(NCCCN1CCC(N2CCCCC2)CC1)c1ccc(-c2ccc(C(F)(F)F)s2)cc1` [Compound 1137] yielded an EC50 of 100 to 1000 nM.

Regarding `Cc1cc(NCCCN2CCC(N3CCCCC3)CC2)n2nc(-c3ccccc3)cc2n1` [Compound 1103], the EC50 fell in the range of 1000 to 10000 nM. In the case of `CN1CCC(C2CCN(CCCNC(=O)c3ccc(Oc4ccccc4)cc3)CC2)CC1` [Compound 1065], the EC50 lay in the range of 100 to 1000 nM. In the case of `CN(C)c1ccc(-c2ccc(C(=O)NCCCN3CCC(N4CCCCC4)CC3)cc2)cc1` [Compound 1125], the EC50 lay in the range of 100 to 1000 nM.

The compound `O=C(NCCCN1CCC(N2CCCCC2)CC1)c1ccc(Oc2cccc(F)c2)cc1` [Compound 1062] displayed an EC50 above 10000 nM.

As for `O=C(NCCCN1CCC(N2CCCCC2)CC1)c1ccc(-c2cccc([N+](=O)[O-])c2)cc1` [Compound 1147], the EC50 was 100 to 1000 nM.

With `Cc1cc(-c2ccc(C(F)(F)F)cc2)ccc1C(=O)NCCCN1CCC(N2CCCCC2)CC1` [Compound 1156], the EC50 lay within 100 to 1000 nM.

The experiment is the same for the next values; noted with them: Hepatitis C virus, Huh7.5, 72 h.
`CC(C)(C)OC(=O)c1c(NC(=O)NCc2c(-n3cccc3)sc3c2CCN(CCO)C3)sc2c1CCCC2` [Compound 258] had an EC50 below 100 nM. `CN(C)c1cccc(-c2sc3c(c2CNC(=O)Nc2sc4c(c2C(=O)OC(C)(C)C)CCCC4)CCNC3)c1` [Compound 230] registered an EC50 of 1000 to 10000 nM.

`CCOC(=O)c1c(NC(=O)NCc2c(C(F)(F)F)sc3c2CCN(C(=O)[C@H](C)N)C3)sc2c1CCCC2` [Compound 327] registered a concentration giving a half-maximal response (EC50) below 100 nM. The same measure, in the same setting: under `CCOC(=O)c1c(NC(=O)NCc2c(-n3cccc3)sc3c2CCCC3)sc2c1CCCC2` [Compound 4] stands below 100 nM; under `CN1CCc2c(sc(C(F)(F)F)c2CNC(=O)Nc2sc3c(c2C(=O)OC(C)(C)C)CCCC3)C1` [Compound 184], below 100 nM. On to `Cc1noc(-c2c(NC(=O)NCc3c(-n4cccc4)sc4c3CCNC4)sc3c2CCCC3)n1` [Compound 304], for which the EC50 fell in the range of 100 to 1000 nM. `CC(C)(C)OC(=O)c1c(NC(=O)NCc2c(Br)sc3c2CCNC3)sc2c1CCOC2` [Compound 239] yielded an EC50 below 100 nM. In the case of `CCOC(=O)c1c(NC(=O)NCc2c(C(F)(F)F)sc3c2CCN(C(=O)C(C)N)C3)sc2c1CCCC2` (centres unmarked) [Compound 315], the half-maximal effective concentration (EC50) was below 100 nM. In turn, `Cc1nnc(-c2c(NC(=O)NCc3c(-n4cccc4)sc4c3CCNC4)sc(C)c2C)o1` [Compound 72] came in with an EC50 of 100 to 1000 nM. On the same count and under the same terms, under `CCOC(=O)c1c(NC(=O)NCc2c(C(F)(F)F)sc3c2CCN(C(=O)[C@@H](N)C(C)C)C3)sc2c1CCCC2` [Compound 345] stands below 100 nM. As for `CCN1CCc2c(sc(-n3cccc3)c2CNC(=O)Nc2sc3c(c2C(=O)OC(C)(C)C)CC(C)CC3)C1` (centres unmarked) [Compound 232], the EC50 was below 100 nM. In turn, `CC(C)(C)OC(=O)c1c(NC(=O)NCc2c(-c3ccoc3)sc3c2CCNC3)sc2c1CCCC2` [Compound 183] gave an EC50 below 100 nM. Compound `CC1Cc2c(sc(NC(=O)NCc3c(C(F)(F)F)sc4c3CCNC4)c2C(=O)OC(C)(C)C)C(C)C1` (centres unmarked) [Compound 266] showed a concentration for a half-maximal effect (EC50) below 100 nM. Turning to `CCOC(=O)c1c(NC(=O)NCc2c(-n3cccc3)sc3c2CCN(C)C3)sc2c1CCCC2` [Compound 67], the concentration giving a half-maximal response (EC50) was below 100 nM. On to `CC(C)(C)OC(=O)c1c(NC(=O)NCc2c(-c3ccc(C(=O)O)cc3F)sc3c2CCNC3)sc2c1CCCC2` [Compound 321], for which the half-maximal effective concentration (EC50) was in the range of 1000 to 10000 nM.

`CCOC(=O)c1c(NC(=O)NCc2c(C(F)(F)F)sc3c2CCNC3)sc(C)c1C` [Compound 132] had a concentration for a half-maximal effect (EC50) below 100 nM. `Cc1sc(NC(=O)C(=O)NCc2c(C(F)(F)F)sc3c2CCNC3)c(C(=O)OC(C)(C)C)c1C` [Compound 360] came in with an EC50 of 100 to 1000 nM. Regarding `CC(C)(C)OC(=O)c1c(NC(=O)NCc2c(-c3ccncc3)sc3c2CCNC3)sc2c1CCCC2` [Compound 145], the half-maximal effective concentration (EC50) was below 100 nM. `CCN1CCc2c(sc(Br)c2CNC(=O)Nc2sc3c(c2C(=O)OC(C)C)CCCC3)C1` [Compound 174] returned an EC50 below 100 nM. Take `CC(C)(C)OC(=O)c1c(NC(=O)NCc2c(-c3cccnc3)sc3c2CCNC3)sc2c1CCCC2` [Compound 123]: the EC50 is below 100 nM. As to `CCOC(=O)c1c(NC(=O)NCc2c(-n3cccc3)sc3c2CCN(C)C3)sc(C)c1C` [Compound 71], the EC50 is below 100 nM. `Cc1sc(NC(=O)NCc2c(C(F)(F)F)sc3c2CCNC3)c(C(=O)OC(C)(C)C)c1C` [Compound 137] showed an EC50 below 100 nM. Still for that read-out and setting: under `Cc1nnc(-c2c(NC(=O)NCc3c(-n4cccc4)sc4c3CCN(C)C4)sc(C)c2C)o1` [Compound 74] stands below 100 nM; under `Cc1sc(NC(=O)NCc2c(-c3cccc(F)c3)sc3c2CCN(CCN(C)C)C3)c(C(=O)OC(C)(C)C)c1C` [Compound 366], below 100 nM; under `CCOC(=O)c1c(NC(=O)NCc2c(-n3cccc3)sc3c2CCN(CC)C3)sc2c1CCN(CC)C2` [Compound 26], below 100 nM. `CCOC(=O)c1c(NC(=O)NCc2c(-c3ccccc3)sc3c2CCNC3)sc2c1CCCC2` [Compound 62] showed an EC50 of 100 to 1000 nM. In the case of `CC(C)(C)OC(=O)c1c(NC(=O)NCc2c(-c3ccccc3O)sc3c2CCNC3)sc2c1CCCC2` [Compound 249], the EC50 fell in the range of 100 to 1000 nM. In the case of `CCOC(=O)c1cc(C)ccc1NC(=O)NCc1c(-n2cccc2)sc2c1CCNC2` [Compound 104], the EC50 was 1000 to 10000 nM.
